pIC50, pKd: −log10 of the molar value. Residues, ends and D or L forms follow the SMILES beside them.
Columns and labels:
[1] = biological target: T1, cardiac myosin-enhanced prothrombin activation by factors Xa and Va (Homo sapiens, UniProt P00742); assay: Cardiac myosin-enhanced prothrombin activation; assay type: biochemical; conditions: peptide 0 to 12.5 μM, cardiac myosin 2 nM, FIG. 17
T1 construct: factor Va (5 nM, final) and factor Xa (0.2 nM, final)
Experimental: Varying concentrations of peptide HC796-835 (SEQ ID NO:21), ranging from 0 to 12.5 μM, were incubated with factor Va (5 nM, final) and factor Xa (0.2 nM, final) in Tris buffered saline containing bovine serum albumin (TBSA) plus 5 mM CaCl2 at room temperature in the presence of cardiac myosin (2 nM, final). Thrombin generation was initiated by the addition of prothrombin (0.75 μM) in TB SA containing 5 mM CaCl2. The reaction was quenched by adding EDTA (10 mM final) at 10 min. The rate of thrombin formation was quantified by measuring thrombin concentration as the rate of thrombin substrate hydrolysis. 100% was the value for controls in the absence of added peptides. Each value represents the mean [±SEM] of triplicate determinations.

[2] = system: thrombin generation in human platelet poor plasma with skeletal muscle myosin; assay: Assay 2A: thrombin generation, recalcification of human platelet poor plasma + myosin; assay type: biochemical; conditions: human plasma, recalcification, myosin present; read-out: 2A (recalcification +myosin) IC50
Method in brief: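 Pooled normal human platelet-poor plasma (30%) preincubated 5 min at 37° C with 50 nM skeletal muscle myosin and peptide in DMSO. Coagulation triggered with 10 mmol/L CaCl2 plus fluorogenic Z-Gly-Gly-Arg-AMC; thrombin generation followed 25 min (ex 360/em 460 nm). IC50 = peptide concentration giving 50% inhibition of thrombin generation.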

[3] = system: thrombin generation in human whole blood; assay: Assay 4: thrombin generation in recalcified human whole blood; assay type: biochemical; conditions: recalcification
Experimental: In addition to purified protein system and human plasma, assays using whole blood (Assay 4) were also performed to examine anti-coagulant activities of the peptides and derivative compounds. In these assays, freshly drawn anticoagulated human whole blood (80 μL aliquot) was incubated with peptide in DMSO or DMSO alone (control) for 5 min at 37° C. Then, fluorogenic thrombin substrate solution (Z-Gly-Gly-Arg-AMC) (I-1140) with 10 mmol/L CaCl2 (final) alone was added to the reaction mixture (total 110 μl) in 96 well plate to initiate coagulation. Thrombin generation was followed continuously for 25 min using SPECTRAmax GEMINI XS fluorometer (Molecular Devices, Sunnyvale, Calif.) with excitation and emission wavelengths set at 360 and 460 nm, respectively. The first derivative of fluorescence versus time was used to produce thrombin generation curves with the correction for substrate consumption and inner filter effect. IC50 were determined using a curve fit program in Prism7.0 (GraphPad Software, San Diego, Calif.).

[4] = biological target: phospholipid-supported prothrombin activation by factors Xa and Va (Homo sapiens, UniProt P00742); assay: Assay 1C: phospholipid vesicle (PC/PS 80%/20%)-supported prothrombin activation; assay type: biochemical
phospholipid-supported prothrombin activation by factors Xa and Va, sequence (P00742 41-179 limits assumed): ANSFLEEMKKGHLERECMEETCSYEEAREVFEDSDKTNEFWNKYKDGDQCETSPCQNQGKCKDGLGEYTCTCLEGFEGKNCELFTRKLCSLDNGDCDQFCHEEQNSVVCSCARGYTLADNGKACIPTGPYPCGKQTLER
phospholipid-supported prothrombin activation by factors Xa and Va, sequence (P00742 235-488 limits assumed): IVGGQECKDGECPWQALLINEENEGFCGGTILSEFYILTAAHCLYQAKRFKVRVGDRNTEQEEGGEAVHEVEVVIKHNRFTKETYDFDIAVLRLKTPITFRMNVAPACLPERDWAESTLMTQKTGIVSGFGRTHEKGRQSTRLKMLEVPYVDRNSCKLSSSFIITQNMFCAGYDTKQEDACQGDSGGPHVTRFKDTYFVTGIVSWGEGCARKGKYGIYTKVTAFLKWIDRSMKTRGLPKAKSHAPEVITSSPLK

[5] = system: thrombin generation in human plasma; assay: Thrombin generation assay in pooled normal human plasma (Examples 3 and 4); assay type: biochemical
Experimental: Thrombin generation assay in pooled human plasma: The effect of synthetic peptides on thrombin generation in pooled normal human plasma (George King Bio-medical, Inc., Overland Park, KS) was tested as described (1,11). Briefly, normal human plasma (30 μl) was mixed with CTI, followed by the addition of peptide. Then, tissue factor (TF) (Innovin) (0.5[…] pM final) containing 30 mM Ca^++ in TBSA with fluorogenic thrombin substrate solution (I-1140) (Bachem Americas, Inc., Torrance, Calif.) were added to the plasma to initiate coagulation activation. The first derivative of the time course data for substrate hydrolysis yielded the thrombin generation curve, allowing measurement of thrombin generation during the initiation, propagation and termination phases of thrombin generation and the value for peak thrombin generated.

factor Xa = factor Xa (Homo sapiens, UniProt P00742); assay: Factor Xa peptide binding assay (immobilized peptide); conditions: FIG. 2C; read-out: apparent Kd, factor Xa binding to immobilized peptide
Experimental: Factor Xa Peptide Binding Assays: Peptide HC796-835 at 10 μg/mL in sodium bicarbonate (pH 9.3) was coated onto the wells of microtiter plates and then blocked with 5% fatty acid free BSA in TBS. After washing the plate with TBSA containing 5 mM CaCl2, various concentrations of factor Xa in binding buffer consisting of TBSA containing 5 mM CaCl2 were incubated in plate wells for 1 h at room temperature. Following 3 washings, bound factor Xa was detected by adding chromogenic substrate for factor Xa (S2222, Chromogenix, Franklin, Ohio). The absorbance values observed for triplicate noncoated wells lacking peptides served as nonspecific controls for binding and were subtracted from observed values for corresponding duplicate peptide-coated wells. Nonspecific binding of Factor Xa ranged from 5 to 20% of total observed binding in various experiments.
Statistical analysis: Apparent Kd values using saturation binding curve fit were performed using Prism™ 7.0 software (Graph Pad Software Inc., San Diego, Calif.).

[6] = system: skeletal muscle myosin-supported prothrombin activation by factors Xa and Va; assay: Assay 1A: prothrombin activation by factor Xa/factor Va/myosin in purified system; assay type: biochemical, human factors Xa and Va; rabbit skeletal muscle myosin
[7] = biological target: skeletal muscle myosin-supported prothrombin activation by factors Xa and Va (Homo sapiens, UniProt P00742); assay: as above; assay type: biochemical, human factors Xa and Va; rabbit skeletal muscle myosin; conditions: FIG. 5; read-out: IC50, prothrombin activation by factor Xa/factor Va/myosin in purified system
skeletal muscle myosin-supported prothrombin activation by factors Xa and Va (Homo sapiens, UniProt P00742), sequence (P00742 41-179): as the sequence (P00742 41-179 limits assumed) above
skeletal muscle myosin-supported prothrombin activation by factors Xa and Va (Homo sapiens, UniProt P00742), sequence (P00742 235-488): as the sequence (P00742 235-488 limits assumed) above
skeletal muscle myosin-supported prothrombin activation by factors Xa and Va (Homo sapiens, UniProt P00742), sequence (P12259 29-737 partner): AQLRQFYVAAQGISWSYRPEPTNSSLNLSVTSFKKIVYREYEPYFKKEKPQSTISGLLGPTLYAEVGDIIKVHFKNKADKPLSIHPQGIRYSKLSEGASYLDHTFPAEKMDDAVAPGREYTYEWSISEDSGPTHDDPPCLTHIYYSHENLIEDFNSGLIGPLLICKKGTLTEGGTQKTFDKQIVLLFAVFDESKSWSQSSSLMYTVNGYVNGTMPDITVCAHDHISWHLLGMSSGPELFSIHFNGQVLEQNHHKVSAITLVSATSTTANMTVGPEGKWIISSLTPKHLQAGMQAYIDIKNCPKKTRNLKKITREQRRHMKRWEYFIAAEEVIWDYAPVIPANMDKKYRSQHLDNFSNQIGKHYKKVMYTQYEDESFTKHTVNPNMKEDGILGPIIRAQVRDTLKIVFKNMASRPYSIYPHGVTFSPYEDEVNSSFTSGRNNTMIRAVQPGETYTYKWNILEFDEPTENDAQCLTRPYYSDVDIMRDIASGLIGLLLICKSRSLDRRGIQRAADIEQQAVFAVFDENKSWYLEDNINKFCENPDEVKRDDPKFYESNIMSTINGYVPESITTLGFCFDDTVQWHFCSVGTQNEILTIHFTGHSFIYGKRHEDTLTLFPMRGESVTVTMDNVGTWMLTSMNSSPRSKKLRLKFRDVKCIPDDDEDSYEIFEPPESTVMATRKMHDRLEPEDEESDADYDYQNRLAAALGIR
skeletal muscle myosin-supported prothrombin activation by factors Xa and Va (Homo sapiens, UniProt P00742), sequence (P12259 1574-2224 partner): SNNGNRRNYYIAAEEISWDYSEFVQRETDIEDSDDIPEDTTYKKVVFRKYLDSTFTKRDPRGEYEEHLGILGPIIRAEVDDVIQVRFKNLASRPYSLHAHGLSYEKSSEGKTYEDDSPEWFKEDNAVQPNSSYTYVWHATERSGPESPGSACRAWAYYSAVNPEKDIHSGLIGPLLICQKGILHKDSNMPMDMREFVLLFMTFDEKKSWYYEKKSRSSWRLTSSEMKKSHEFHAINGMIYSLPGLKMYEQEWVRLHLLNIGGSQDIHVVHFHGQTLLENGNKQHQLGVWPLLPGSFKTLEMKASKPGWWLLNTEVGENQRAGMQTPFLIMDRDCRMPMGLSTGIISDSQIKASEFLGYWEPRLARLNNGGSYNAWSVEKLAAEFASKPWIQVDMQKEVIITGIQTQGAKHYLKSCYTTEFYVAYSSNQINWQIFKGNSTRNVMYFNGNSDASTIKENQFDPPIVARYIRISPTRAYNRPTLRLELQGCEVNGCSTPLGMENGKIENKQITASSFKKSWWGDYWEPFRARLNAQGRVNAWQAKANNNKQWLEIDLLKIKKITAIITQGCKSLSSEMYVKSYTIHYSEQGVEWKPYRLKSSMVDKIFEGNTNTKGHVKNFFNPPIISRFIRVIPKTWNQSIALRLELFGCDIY

T1 sequence (P00742 41-179 limits assumed): as the sequence (P00742 41-179 limits assumed) above
T1 sequence (P00742 235-488 limits assumed): as the sequence (P00742 235-488 limits assumed) above

CC[C@H](C)[C@H](NC(=O)[C@H](C)NC(=O)[C@H](CCC(=O)O)NC(=O)[C@H](CCCNC(=N)N)NC(=O)[C@H](CCCNC(=N)N)NC(=O)[C@H](CCC(=O)O)NC(=O)[C@@H](NC(=O)[C@H](CCSC)NC(=O)[C@H](CCCNC(=N)N)NC(=O)[C@H](CCC(N)=O)NC(=O)[C@H](Cc1ccc(O)cc1)NC(=O)[C@H](CCC(=O)O)NC(=O)[C@@H](NC(=O)[C@H](CCCNC(=N)N)NC(=O)[C@H](C)NC(=O)[C@H](CC(C)C)NC(=O)[C@H](Cc1ccccc1)NC(=O)CNC(=O)[C@H](CCCNC(=N)N)NC(=O)[C@H](CS)NC(=O)[C@H](CCCNC(=N)N)NC(=O)[C@H](C)N)C(C)C)C(C)C)C(=O)N[C@@H](Cc1ccccc1)C(=O)N[C@@H](CS)C(=O)N[C@H](C(=O)N[C@@H](CCC(N)=O)C(=O)N[C@@H](Cc1ccc(O)cc1)C(=O)N[C@@H](CC(N)=O)C(=O)N[C@H](C(=O)N[C@@H](CCCNC(=N)N)C(=O)N[C@@H](CO)C(=O)N[C@@H](Cc1ccccc1)C(=O)N[C@@H](CCSC)C(=O)N[C@@H](CC(N)=O)C(=O)N[C@H](C(=O)N[C@@H](CCCCN)C(=O)N[C@@H](Cc1c[nH]cn1)C(=O)N[C@@H](Cc1c[nH]c2ccccc12)C(=O)N1CCC[C@H]1C(=O)N[C@@H](Cc1c[nH]c2ccccc12)C(N)=O)C(C)C)[C@@H](C)CC)[C@@H](C)CC [HC796-835] (H-ARCRGFLARVEYQRMVERREAIFCIQYNIRSFMNVKHWPW-NH2) was tested, and the “inhibition of cardiac myosin-enhanced prothrombin activation” value [1] was “inhibition”, the pIC50 [2] was 5.42 and the “4 (recalcification) IC50” value [3] was “No activity”. The “inhibitory effects on phospholipid-supported prothrombin activation” value ([4]; compared with effects on myosin-supported prothrombin activation) was “not apparent”, the “1C (+phospholipid)” value ([4]; purified system, phospholipid vesicles) was “No activity” and the pIC50 ([5]; FIG. 3B, peptide 0-25 μM, read-out: IC50, inhibition of thrombin generation in plasma) was about 5.26. The “inhibition of thrombin generation in human plasma” value ([5]; screened at 25 μM, FIG. 3A) was “significantly inhibited”, the pKd (factor Xa) was 5.85 and the pIC50 ([6]; dose-dependency assays, FIG. 2A, myosin 2 nM, read-out: IC50, inhibition of myosin-supported prothrombin activation) was 5.92. The “inhibition of myosin-supported prothrombin activation at 5 μM” value ([6]; peptide 5 μM, FIG. 1A) was “inhibitory, to varying degrees”, the “inhibition of myosin-supported prothrombin activation at 100 μM” value ([6]; peptide 100 μM, FIG. 1A) was “inhibited” and the pIC50 [7] was 5.89.

Reference: patent US20220340629A1, “Myosin Derived Peptides and Related Compounds with Anticoagulant Activities” (THE SCRIPPS RESEARCH INSTITUTE, priority 0001, published 2022)
